Measured values published in patent publication US20250268903A1, “RXFP1 AGONISTS” (BRISTOL-MYERS SQUIBB COMPANY, priority 2021, published 2025).

What follows are compounds tested against T1, human RXFP1 (Homo sapiens, UniProt Q9HBX9) (assay: hRXFP1 HEK293 cAMP assay (HTRF)). Details: HEK293 cells stably expressing human RXFP1, 30 min at room temperature.
T1 construct: expressed in transfected cells
T1 sequence (Q9HBX9 1-757): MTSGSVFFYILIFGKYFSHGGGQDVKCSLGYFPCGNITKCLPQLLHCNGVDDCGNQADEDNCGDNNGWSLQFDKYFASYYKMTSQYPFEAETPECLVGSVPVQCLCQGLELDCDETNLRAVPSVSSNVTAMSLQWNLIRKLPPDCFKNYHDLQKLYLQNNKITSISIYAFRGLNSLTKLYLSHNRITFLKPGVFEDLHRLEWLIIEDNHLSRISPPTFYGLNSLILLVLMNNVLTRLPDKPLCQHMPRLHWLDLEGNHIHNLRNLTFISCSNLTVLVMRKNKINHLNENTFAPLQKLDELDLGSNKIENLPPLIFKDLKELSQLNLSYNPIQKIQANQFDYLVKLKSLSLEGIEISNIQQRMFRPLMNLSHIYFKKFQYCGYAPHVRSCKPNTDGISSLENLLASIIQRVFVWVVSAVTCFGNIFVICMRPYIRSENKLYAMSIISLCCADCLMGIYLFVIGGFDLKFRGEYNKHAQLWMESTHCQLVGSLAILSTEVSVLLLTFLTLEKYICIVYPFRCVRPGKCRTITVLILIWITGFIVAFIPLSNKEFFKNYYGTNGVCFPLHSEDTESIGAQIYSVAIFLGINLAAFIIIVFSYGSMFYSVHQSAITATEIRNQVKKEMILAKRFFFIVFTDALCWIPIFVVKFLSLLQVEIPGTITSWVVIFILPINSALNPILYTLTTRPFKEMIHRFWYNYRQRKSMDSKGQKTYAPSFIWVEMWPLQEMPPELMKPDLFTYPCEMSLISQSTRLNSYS
Assay type: cell-based
Procedure, shortened: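 hRXFP1-HEK293 stable line; HBSS + Ca/Mg, 20 mM HEPES, 0.05% BSA, 0.5 mM IBMX; cpd 0.010 nM–50 μM, 2% DMSO; 30 min RT; lysis, HTRF cAMP detection; 4-PL fit.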

Row | Compound | EC50
1 | COc1ccc(C(=O)NCC(C)(C)O)cc1C(=O)N[C@H]1[C@@H](C(=O)Nc2ccc(F)c(C(F)(F)F)c2)[C@H]2CC[C@@H]1/C2=C\C1CC1 [Example 240, N3-[(1R,2R,3S,4R,7Z)-7-(cyclopropyl-methylidene)-3-{[4-fluoro-3-(trifluoromethyl)phenyl]carbamoyl}bicyclo[2.2.1]heptan-2-yl]-N1-(2-hydroxy-2-methylpropyl)-4-methoxybenzene-1,3-dicarboxamide] | 0.0531 µM
2 | COc1ccc(C(=O)N(C)C(C)(C)C)cc1C(=O)N[C@H]1[C@@H](C(=O)Nc2ccc(F)c(C(F)(F)F)c2)[C@H]2CC[C@@H]1/C2=C\C1CC1 [Example 241, N1-tert-butyl-N3-[(1R,2R,3S,4R,7Z)-7-(cyclopropyl-methylidene)-3-{[4-fluoro-3-(trifluoromethyl)phenyl]carbamoyl}bicyclo[2.2.1]heptan-2-yl]-4-methoxy-N1-methylbenzene-1,3-dicarboxamide] | 0.0698 µM
3 | COc1ccc(C(=O)N2CCS(=O)(=O)CC2)cc1C(=O)N[C@H]1[C@@H](C(=O)Nc2ccc(F)c(C(F)(F)F)c2)[C@H]2CC[C@@H]1/C2=C\C1CC1 [Example 242, (1R,2S,3R,4R,7Z)-7-(cyclopropyl-methylidene)-3-[5-(1,1-dioxo-1λ.^6-thiomorpholine-4-carbonyl)-2-methoxybenzamido]-N-[4-fluoro-3-(trifluoromethyl)phenyl]bicyclo [2.2.1] heptane-2-carboxamide] | 0.261 µM
4 | COc1ccc(C(=O)N2CC3(COC3)C2)cc1C(=O)N[C@H]1[C@@H](C(=O)Nc2ccc(F)c(C(F)(F)F)c2)[C@H]2CC[C@@H]1/C2=C\C1CC1 [Example 248, (1R,2S,3R,4R,7Z)-7-(cyclopropylmethyl-idene)-N-[4-fluoro-3-(trifluoromethyl)phenyl]-3-(2-methoxy-5-{2-oxa-6-azaspiro[3.3]heptane-6-carbonyl}benzamido) bicyclo[2.2.1]heptane-2-carboxamide] | 0.128 µM
5 | COc1ccc(C(=O)N2C[C@H]3CNC[C@H]3C2)cc1C(=O)N[C@H]1[C@@H](C(=O)Nc2ccc(F)c(C(F)(F)F)c2)[C@H]2CC[C@@H]1/C2=C\C1CC1 [Example 249] | 0.432 µM
6 | COc1ccc(C(=O)N2CC(O)C2)cc1C(=O)N[C@H]1[C@@H](C(=O)Nc2ccc(F)c(C(F)(F)F)c2)[C@H]2CC[C@@H]1/C2=C\C1CC1 [Example 251, (1R,2S,3R,4R,7Z)-7-(cyclopropylmethyl-idene)-N-[4-fluoro-3-(trifluoromethyl)phenyl]-3-[5-(3-hydroxyazetidine-1-carbonyl)-2-methoxybenzamido] bicyclo[2.2.1]heptane-2-carboxamide] | 0.044 µM
7 | COc1ccc(C(=O)N2CC[C@H](O)C2)cc1C(=O)N[C@H]1[C@@H](C(=O)Nc2ccc(F)c(C(F)(F)F)c2)[C@H]2CC[C@@H]1/C2=C\C1CC1 [Example 254, (1R,2S,3R, 4R,7Z)-7-(cyclopropyl-methylidene)-N-[4-fluoro-3-(trifluoromethyl)phenyl]-3-{5-[(3S)-3-hydroxypyrrolidine-1-carbonyl]-2-methoxybenzamido} bicyclo[2.2.1] heptane-2-carboxamide] | 0.054 µM

Compounds with a lower EC50, results first:

Row | EC50 | Compound
8 | 0.0378 µM | COc1ccc(C(=O)N2CC[C@@H](CO)C2)cc1C(=O)N[C@H]1[C@@H](C(=O)Nc2ccc(F)c(C(F)(F)F)c2)[C@H]2CC[C@@H]1/C2=C\C1CC1 [Example 245, (1R,2S,3R,4R,7Z)-7-(cyclopropyl-methylidene)-N-[4-fluoro-3-(trifluoromethyl)phenyl]-3-{5-[(3R)-3-(hydroxymethyl)pyrrolidine-1-carbonyl]-2-methoxybenzamido} bicyclo[2.2.1]heptane-2-carboxamide]
9 | 0.0349 µM | COc1ccc(C(=O)N(C)CCS(C)(=O)=O)cc1C(=O)N[C@H]1[C@@H](C(=O)Nc2ccc(F)c(C(F)(F)F)c2)[C@H]2CC[C@@H]1/C2=C\C1CC1 [Example 250, N3-[(1R,2R,3S,4R,7Z)-7-(cyclopropyl-methylidene)-3-{[4-fluoro-3-(trifluoromethyl)phenyl]carbamoyl}bicyclo[2.2.1]heptan-2-yl]-N1-(2-methane-sulfonylethyl)-4-methoxy-N1-methylbenzene-1,3-dicarboxamide]
10 | 0.0272 µM | COc1ccc(C(=O)N2CCC(S(C)(=O)=O)CC2)cc1C(=O)N[C@H]1[C@@H](C(=O)Nc2ccc(F)c(C(F)(F)F)c2)[C@H]2CC[C@@H]1/C2=C\C1CC1 [Example 247, (1R,2S,3R,4R,7Z)-7-(cyclopropylmethyl-idene)-N-[4-fluoro-3-(trifluoromethyl)phenyl]-3-[5-(4-methanesulfonyl-piperidine-1-carbonyl)-2-methoxybenzamido] bicyclo[2.2.1] heptane-2-carboxamide]
11 | 0.0137 µM | COc1ccc(C(=O)N2CCC3(CC2)COC3)cc1C(=O)N[C@H]1[C@@H](C(=O)Nc2ccc(F)c(C(F)(F)F)c2)[C@H]2CC[C@@H]1/C2=C\C1CC1 [Example 246, (1R,2S,3R, 4R,7Z)-7-(cyclopropyl-methylidene)-N-[4-fluoro-3-(trifluoromethyl)phenyl]-3-(2-methoxy-5-{2-oxa-7-azaspiro[3.5]nonane-7-carbonyl}benzamido) bicyclo[2.2.1] heptane-2-carboxamide]
12 | 0.0119 µM | COc1ccc(C(=O)N2CC3(C2)CS(=O)(=O)C3)cc1C(=O)N[C@H]1[C@@H](C(=O)Nc2ccc(F)c(C(F)(F)F)c2)[C@H]2CC[C@@H]1/C2=C\C1CC1 [Example 243, (1R,2S,3R,4R,7Z)-7-(cyclopropyl-methylidene)-3-(5-{2,2-dioxo-2λ^6-thia-6-azaspiro[3.3]heptane-6-carbonyl}-2-methoxybenzamido)-N-[4-fluoro-3-(trifluoromethyl)phenyl]bicyclo[2.2.1] heptane-2-carboxamide]
13 | 0.0119 µM | COc1ccc(C(=O)NCCS(C)(=O)=O)cc1C(=O)N[C@H]1[C@@H](C(=O)Nc2ccc(F)c(C(F)(F)F)c2)[C@H]2CC[C@@H]1/C2=C\C1CC1 [Example 253, N3-[(1R,2R, 3S,4R,7Z)-7-(cyclopropylmethyl-idene)-3-{[4-fluoro-3-(trifluoromethyl)phenyl]carbamoyl}bicyclo[2.2.1]heptan-2-yl]-N1-(2-methanesulfonylethyl)-4-methoxybenzene-1,3-dicarboxamide]
14 | 0.011 µM | COc1ccc(C(=O)N2CC[C@@H](O)C2)cc1C(=O)N[C@H]1[C@@H](C(=O)Nc2ccc(F)c(C(F)(F)F)c2)[C@H]2CC[C@@H]1/C2=C\C1CC1 [Example 244, (1R,2S,3R,4R,7Z)-7-(cyclopropyl-methylidene)-N-[4-fluoro-3-(trifluoromethyl)phenyl]-3-{5-[(3R)-3-hydroxypyrrolidine-1-carbonyl]-2-methoxybenzamido} bicyclo[2.2.1]heptane-2-carboxamide]
15 | 0.00416 µM | COc1ccc(C(=O)N2CCC(S(C)(=O)=O)C2)cc1C(=O)N[C@H]1[C@@H](C(=O)Nc2ccc(F)c(C(F)(F)F)c2)[C@H]2CC[C@@H]1/C2=C\C1CC1 (stereo partly drawn) [Example 252, (1R,2S,3R,4R,7Z)-7-(cyclopropyl-methylidene)-N-[4-fluoro-(trifluoromethyl)phenyl]-3-[5-(3-methanesulfonyl-pyrrolidine-1-carbonyl)-2-methoxybenzamido] bicyclo[2.2.1] heptane-2-carboxamide]
